Results published in publication PMC5923142, “Selection and Characterization of Rupintrivir-Resistant Norwalk Virus Replicon Cells In Vitro” (Antimicrobial Agents and Chemotherapy, 2018).

Columns and labels:
GV I109V mutant protease = biological target: T1, GV I109V mutant protease (Norovirus, UniProt Q80J95, I1103V); test: Cell-based FRET assay, GV I109V protease; set-up: species or system murine norovirus (MNV) GV (DQ285629)
T1 construct: plasmids expressing norovirus protease from GI.1 (M87661), GII.4 (DQ658413), or GV (DQ285629) norovirus; expressed in transfected cells; host or cells: HEK293T
T1 sequence (Q80J95 995-1177 I1103V): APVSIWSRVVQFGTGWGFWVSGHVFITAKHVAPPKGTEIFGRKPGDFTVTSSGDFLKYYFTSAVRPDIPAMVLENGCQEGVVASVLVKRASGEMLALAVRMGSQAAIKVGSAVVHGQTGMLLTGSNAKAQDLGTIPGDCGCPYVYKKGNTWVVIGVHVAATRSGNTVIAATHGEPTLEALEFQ
Excerpt: The generation of plasmids expressing norovirus protease from GI.1 (M87661), GII.4 (DQ658413), or GV (DQ285629) norovirus and FRET assay constructs has been described previously ([18]). The plasmids carrying GI, GII, and GV proteases with the A105V, I109V, or A105V/I109V mutation were generated from the wild-type (WT) protease constructs described above by the QuikChange site-directed mutagenesis method. Mutant MNV genomes for reverse genetics were generated by two-step PCR mutagenesis of the WT MNV genome (pT7 MNV 3RZ) construct as described previously ([27]). The primers used for generation of the plasmids are listed in Tables S1 and S2 in the supplemental material.
The YFP/CFP ratio was used to determine FRET efficiency, as described previously ([18], [40]). Briefly, HEK293T cells were plated into black 96-well cell culture microplates (Greiner Bio-One) at a density of 5 × 10^4 cells/well in 100 μl of DMEM containing 10% fetal bovine serum with or without various concentrations of rupintrivir and then incubated for 4 h in a CO2 incubator at 37°C. […] The plates were then analyzed on a SpectraMax i3 instrument in fluorescence mode, with excitation set at 434 nm and the reading emissions set at 477 nm (CFP) and 527 nm (YFP). The background fluorescence from wells transfected with pcDNA3.1 was determined and subtracted. […]

Norwalk virus replicon = test: Replicon clearance from HGT-NV cells over 12 days without G418 (qRT-PCR); assay type: cell-based, Human norovirus (HuNoV) GI; conditions: 12 days posttreatment, no G418
Method: To confirm the previously reported inhibitory effects of rupintrivir on human norovirus replication ([10]), we generated a human gastric adenocarcinoma cell line, HGT-NV, which stably maintained a Norwalk virus replicon encoding the neomycin resistance gene in place of the major capsid protein. The effects of rupintrivir on norovirus RNA replication in the replicon cells were evaluated by quantitative reverse transcription-PCR (qRT-PCR). […] To determine the concentration of rupintrivir sufficient to completely eliminate the norovirus replicon from HGT-NV cells, we treated the replicon cells with 2.5, 5, and 10 μM rupintrivir in the absence of G418 for up to 12 days. The replicon cells were passaged on days 3, 8, and 12, and the levels of replicon RNA were quantified by qRT-PCR. […] To further characterize the inhibitory effects of rupintrivir, we performed a colony formation assay with replicon cells treated with rupintrivir for 12 days. […]
The inhibitory effect of rupintrivir on HuNoV replication was assessed by quantification of the levels of GI NuNoV RNA and β-actin RNA as the reference gene. […] The real-time quantitative reverse transcription-PCR (qRT-PCR) assay was performed by using a One-Step Plus qRT-PCR kit according to the protocol of the manufacturer (Primer Design). […] Relative quantification was performed using the 2^−ΔΔCT threshold cycle (CT) method ([38]). […]

CCOC(=O)/C=C/[C@H](C[C@@H]1CCNC1=O)NC(=O)[C@@H](CC(=O)[C@@H](NC(=O)c1cc(C)on1)C(C)C)Cc1ccc(F)cc1 [rupintrivir, Rupintrivir]
IC50 (GV I109V mutant protease; HEK293T cells, GV NS1/2-NS3 FRET substrate): 2700 ± 600 nM
fold increase in IC50 (GV I109V mutant protease; vs GV WT protease): 2.7 fold
level of replicon RNA (Norwalk virus replicon; 5 μM): below the limit of quantification
level of replicon RNA (Norwalk virus replicon; 10 μM): below the limit of quantification
